51 compounds from patent US20260234144A1 (TAY THERAPEUTICS LIMITED, priority 2023, published 2026) can be followed below.

The assay deals with R223X stop codon in the mutated luciferase gene, ADXC8 luciferase reporter cell line. The assay can be described thus: cells. Format: cell-based. Conditions: 24 h, ADXC8 cells, 24 hours; for EC (100% of 200 uM G418 response): read-out: pC100%, negative logarithm of the concentration giving the same response as 200 μM G418; for Emax: read-out: Fold Over Control, maximum fold response relative to 200 μM G418.

Some results are limits rather than exact numbers.

For `Cc1ccc2c(N)nc(NC3CCN(C)CC3)nc2n1` [Example 3, 7-methyl-N^2-(1-methylpiperidin-4-yl)pyrido[2,3-d]pyrimidine-2,4-diamine], the EC (100% of 200 uM G418 response) fell in the range of 1 to 10 µM.

Turning to `CNC(=O)c1ccccc1-c1ccc2c(N)nc(NC3CCN(C)CC3)nc2n1` [Example 107], the Emax is 0 to 100% and the EC (100% of 200 uM G418 response) was more than 100 µM.

With `CNc1nc(NC2CN3CCC2C3)nc2nc(C)cc(C)c12` (stereo not drawn) [Example 449], the Emax lay within 0 to 100% and the EC (100% of 200 uM G418 response) is more than 31.6 µM.

With `Cc1cc(C)c2c(N)nc(NC3CC4(CNC4)C3)nc2n1` [Example 202], the Emax was in the range of 100 to 3000% and the EC (100% of 200 uM G418 response) is 10 to 100 µM.

Regarding `CC(=O)Nc1ccc(CN2CCC(Nc3nc(N)c4c(C)cc(C)nc4n3)CC2)cc1` [Example 458], the Emax is 100 to 3000% and the EC (100% of 200 uM G418 response) fell in the range of 10 to 100 µM.

Turning to `Cc1cc(C)c2c(N)nc(NC3CCN(Cc4ncc[nH]4)CC3)nc2n1` [Example 487], the Emax was in the range of 100 to 3000% and the EC (100% of 200 uM G418 response) is 1 to 10 µM.

As for `COc1ccc(CN2CCC(Nc3nc(N)c4c(C)cc(C)nc4n3)CC2)cc1` [Example 478], the Emax lay in the range of 100 to 3000% and the EC (100% of 200 uM G418 response) lay in the range of 0.1 to 1 µM.

For the compound `CC(=O)Nc1cnccc1CN1CCC(Nc2nc(N)c3c(C)cc(C)nc3n2)CC1` [Example 560], the Emax is 100 to 3000% and the EC (100% of 200 uM G418 response) was in the range of 1 to 10 µM.

As to `[2H]C([2H])([2H])Nc1nc(N[C@H]2CN(C)C[C@@H]2O)nc2nc3c(c(C)c12)CCC3` [Example 509, (3S,4S)-1-(methyl-d3)-4-((5-methyl-4-((methyl-da)amino)-7,8-dihydro-6H-cyclopenta[5,6]pyrido[2,3-d]pyrimidin-2-yl)amino)pyrrolidin-3-ol], the EC (100% of 200 uM G418 response) was in the range of 0.01 to 0.1 µM.

As for `CNc1nc(NC2CCN(C)C2(C)C)nc2nc(C)cc(C)c12` (stereo not drawn) [Example 409], the Emax fell in the range of 100 to 3000% and the EC (100% of 200 uM G418 response) was 1 to 10 µM.

`CCNc1nc(N[C@]23C[C@H]2CN(C)C3)nc2nc(C)cc(C)c12` [Example 632]: the Emax lay in the range of 100 to 3000% and the EC (100% of 200 uM G418 response) is 0.1 to 1 µM.

Take `CNc1nc(N[C@]2(C)CCN(C)C2)nc2nc(C)cc(C)c12` [Example 388]: the Emax lay within 0 to 100% and the EC (100% of 200 uM G418 response) is more than 31.6 µM.

For `CNc1nc(N[C@H]2CN[C@H](C)C2)nc2nc(C)cc(C)c12` [Example 376], the EC (100% of 200 uM G418 response) fell in the range of 0.1 to 1 µM.

Consider `Cc1cc(C)c2c(N)nc(NCCCN3CCC3)nc2n1` [Example 191], for which the Emax was 100 to 3000% and the EC (100% of 200 uM G418 response) lay in the range of 10 to 100 µM.

In the case of `CC(C)c1cnc2nc(NC3CCN(C)CC3)nc(N)c2c1` [Example 276], the Emax lay within 100 to 3000% and the EC (100% of 200 uM G418 response) was 10 to 100 µM.

Turning to `Cc1cc(C)c2c(N)nc(NC3CCN(Cc4ccccc4F)CC3)nc2n1` [Example 465], the Emax was 100 to 3000% and the EC (100% of 200 uM G418 response) lay in the range of 1 to 10 µM.

`Cc1c2c(nc3nc(NC4CCN(Cc5cccc(B(O)O)c5)CC4)nc(N)c13)CCC2` [Example 669]: the Emax lay within 100 to 3000% and the EC (100% of 200 uM G418 response) is 1 to 10 µM.

In the case of `CNc1cc(N[C@H]2CN(C)C[C@@H]2O)nc2nc3c(c(C)c12)CCC3` [Example 425, (3S,4S)-1-methyl-4-((5-methyl-4-(methylamino)-7,8-dihydro-6H-cyclopenta[b][1,8]naphthyridin-2-yl)amino)pyrrolidin-3-ol], the EC (100% of 200 uM G418 response) fell in the range of 0.1 to 1 µM.

In the case of `Cc1cc(C)c2c(N)nc(NC3CCN(Cc4cscn4)CC3)nc2n1` [Example 461], the Emax is 100 to 3000% and the EC (100% of 200 uM G418 response) is 1 to 10 µM.

Take `Cc1cc(C)c2c(N)nc(NC3CN(C)C3)nc2n1` [Example 153]: the Emax lay in the range of 0 to 100% and the EC (100% of 200 uM G418 response) is more than 31.6 µM.

Regarding `Cc1cc(C)c2c(N)nc(N[C@H]3CCNC[C@@H]3C)nc2n1` [Example 641], the Emax fell in the range of 100 to 3000% and the EC (100% of 200 uM G418 response) lay in the range of 10 to 100 µM.

With `CNc1nc(N[C@H]2CN(C)C[C@@H]2O)nc2nc(C)c(C)c(C)c12` [Example 520, (3S,4S)-1-methyl-4-((5,6,7-trimethyl-4-(methylamino)pyrido[2,3-d]pyrimidin-2-yl)amino)pyrrolidin-3-ol], the Emax was 100 to 3000% and the EC (100% of 200 uM G418 response) is 0.1 to 1 µM.

As for `CN1CCC(Nc2nc(N)c3cc(-c4cncs4)cnc3n2)CC1` [Example 647], the Emax lay in the range of 100 to 3000% and the EC (100% of 200 uM G418 response) was in the range of 10 to 100 µM.

Consider `CNc1nc(N[C@H]2CN(C)C[C@H]2O)nc2nc3c(c(C)c12)CCC3` [Example 361], for which the Emax lay within 100 to 3000% and the EC (100% of 200 uM G418 response) lay in the range of 1 to 10 µM.

As for `Cc1cc(C)c2c(N)nc(NCC(O)CN3CCCCC3)nc2n1` (stereo not drawn) [Example 642], the Emax lay within 100 to 3000% and the EC (100% of 200 uM G418 response) lay within 10 to 100 µM.

Take `CNc1c(C)c(NC2CCN(C)CC2)nc2nc(C)cc(C)c12` [Example 257, N^4,3,5,7-tetramethyl-N^2-(1-methylpiperidin-4-yl)-1,8-naphthyridine-2,4-diamine]: the Emax fell in the range of 0 to 100% and the EC (100% of 200 uM G418 response) is more than 31.6 µM.

As to `Cc1cc(C)c2c(N)nc(N[C@H]3CCCCNC3)nc2n1` [Example 312], the Emax was in the range of 100 to 3000% and the EC (100% of 200 uM G418 response) lay within 10 to 100 µM.

Consider `CNCc1ccc(-c2ccc3c(N)nc(NC4CCN(C)CC4)nc3n2)cc1` [Example 56], for which the Emax lay in the range of 100 to 3000% and the EC (100% of 200 uM G418 response) was in the range of 10 to 100 µM.

As for `CN1CCC(Nc2nc(N)c3c(N(C)C)ccnc3n2)CC1` [Example 307], the Emax is 0 to 100% and the EC (100% of 200 uM G418 response) was more than 100 µM.

Turning to `Cc1cc(C)c2c(NC(C)C)nc(NC3CCN(C)CC3)nc2n1` [Example 264], the Emax was 100 to 3000% and the EC (100% of 200 uM G418 response) lay within 1 to 10 µM.

With `CN1CCC(Nc2nc(N)c3ccc(-c4cc(F)ccc4F)nc3n2)CC1` [Example 69], the Emax was in the range of 100 to 3000% and the EC (100% of 200 uM G418 response) is 1 to 10 µM.

`Cc1cc(C)c2c(NC3CC3)nc(NC3CCN(C)CC3)nc2n1` [Example 320]: the Emax lay within 100 to 3000% and the EC (100% of 200 uM G418 response) fell in the range of 1 to 10 µM.

On to `COc1ccc(-c2ccc3c(N)nc(NC4CCN(C)CC4)nc3n2)cc1` [Example 24, 7-(4-methoxyphenyl)-N^2-(1-methylpiperidin-4-yl)pyrido[2,3-d]pyrimidine-2,4-diamine], for which the EC (100% of 200 uM G418 response) lay in the range of 1 to 10 µM.

As to `Cc1cc(C)c2c(N)nc(NCCCN3Cc4ccccc4C3)nc2n1` [Example 194], the Emax was 100 to 3000% and the EC (100% of 200 uM G418 response) was 10 to 100 µM.

Turning to `CNc1cc(N[C@H]2CN(C)C[C@H]2OC)nc2nc3c(c(C)c12)CCC3` [Example 424], the Emax fell in the range of 100 to 3000% and the EC (100% of 200 uM G418 response) fell in the range of 0.1 to 1 µM.

For the compound `CNc1nc(N[C@@H]2C[C@@H](O)CN(C)C2)nc2nc(C)cc(C)c12` [Example 604], the Emax lay within 100 to 3000% and the EC (100% of 200 uM G418 response) was in the range of 1 to 10 µM.

As to `CC#Cc1ccnc2nc(NC3CCN(C)CC3)nc(N)c12` [Example 251, N^2-(1-methylpiperidin-4-yl)-5-(prop-1-yn-1-yl)pyrido[2,3-d]pyrimidine-2,4-diamine], the Emax was 100 to 3000% and the EC (100% of 200 uM G418 response) lay within 10 to 100 µM.

Consider `Cc1cc(C)c2c(N)nc(NCCN3CCC3)nc2n1` [Example 184], for which the Emax was in the range of 100 to 3000% and the EC (100% of 200 uM G418 response) is 10 to 100 µM.

With `Cc1cc(C)c2c(N)nc(NC3CCN(Cc4ccccc4C)CC3)nc2n1` [Example 550], the Emax was 100 to 3000% and the EC (100% of 200 uM G418 response) lay in the range of 1 to 10 µM.

`CN1CCC(Nc2nc(N)c3ccc(-c4ccc(CN)cc4)nc3n2)CC1` [Example 63]: the Emax fell in the range of 100 to 3000% and the EC (100% of 200 uM G418 response) was 1 to 10 µM.

As for `CN1CCC(Nc2nc(N)c3ccc(-c4cccc(N)c4)nc3n2)CC1` [Example 93], the Emax lay within 100 to 3000% and the EC (100% of 200 uM G418 response) lay in the range of 10 to 100 µM.

Turning to `CN1CCC(Nc2cc(N)c3cccnc3n2)CC1` [Example 43, N^2-(1-methylpiperidin-4-yl)-1,8-naphthyridine-2,4-diamine], the Emax is 100 to 3000% and the EC (100% of 200 uM G418 response) is 10 to 100 µM.

Regarding `CN1CCC(Nc2nc(N)c3ccc(-c4ccc(S(C)(=O)=O)cc4)nc3n2)CC1` [Example 54], the Emax lay in the range of 0 to 100% and the EC (100% of 200 uM G418 response) was more than 100 µM.

Regarding `CNc1nc(N[C@H]2CNC[C@H]2C)nc2nc(C)cc(C)c12` [Example 380], the Emax was in the range of 100 to 3000% and the EC (100% of 200 uM G418 response) was in the range of 1 to 10 µM.

In the case of `[2H]C([2H])([2H])Nc1nc(NC2CCN(C)CC2)nc2nc(C)cc(C)c12` [Example 328], the Emax was in the range of 100 to 3000% and the EC (100% of 200 uM G418 response) was 1 to 10 µM.

On to `COCc1cnc2nc(NC3CCN(C)CC3)nc(N)c2c1` [Example 242, 6-(methoxymethyl)-N^2-(1-methylpiperidin-4-yl)pyrido[2,3-d]pyrimidine-2,4-diamine], for which the Emax was 0 to 100% and the EC (100% of 200 uM G418 response) was more than 100 µM.

On to `Cc1cc(C)c2c(N)nc(NCCCN3CC4(COC4)C3)nc2n1` [Example 29, N^2-(3-(2-oxa-6-azaspiro[3.3]heptan-6-yl)propyl)-5,7-dimethylpyrido[2,3-d]pyrimidine-2,4-diamine], for which the Emax fell in the range of 100 to 3000% and the EC (100% of 200 uM G418 response) was 10 to 100 µM.

In the case of `Cc1cc(C)c2c(N)nc(N[C@H]3CCNC[C@H]3F)nc2n1` [Example 587], the Emax fell in the range of 100 to 3000% and the EC (100% of 200 uM G418 response) was in the range of 1 to 10 µM.

On to `COCc1ccc(-c2ccc3c(N)nc(NC4CCN(C)CC4)nc3n2)cc1` [Example 78], for which the Emax was in the range of 100 to 3000% and the EC (100% of 200 uM G418 response) lay within 1 to 10 µM.

Regarding `CNc1nc(N[C@H]2CN[C@H](CO)C2)nc2nc(C)cc(C)c12` [Example 415], the EC (100% of 200 uM G418 response) is 1 to 10 µM.

`Cc1cc(C)c2c(N)nc(N[C@H]3CN[C@H](C)C3)nc2n1` [Example 209]: the Emax is 100 to 3000% and the EC (100% of 200 uM G418 response) lay in the range of 1 to 10 µM.
